Data published in patent US11267814B2, “Compounds for bone growth” (OsteoQC Inc., priority 2013, dated 2022).
Where a name gives a salt, the structure may show the parent alone.

Columns and labels:
sclerostin = biological target: T1, sclerostin (Homo sapiens, UniProt Q9BQB4); experiment: Modulation of sclerostin/Wnt activity (sclerostin inhibition assay): restoring Wnt3a signaling in the presence of sclerostin; assay type: cell-based; settings: IC100 class; Wnt3a signaling in human embryonic cells in presence of sclerostin
T1 construct: host or cells: human embryonic cells (reporter cells)
T1 sequence (Q9BQB4 24-213): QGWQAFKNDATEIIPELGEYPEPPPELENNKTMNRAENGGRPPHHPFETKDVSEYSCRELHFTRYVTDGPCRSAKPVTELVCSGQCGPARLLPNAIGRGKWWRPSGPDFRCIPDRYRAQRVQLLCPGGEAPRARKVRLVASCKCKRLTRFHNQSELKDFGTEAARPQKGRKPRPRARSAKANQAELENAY

MC3T3 osteoblast cells = experiment: Osteocalcin (OCN) secretion, bone formation marker, ELISA; assay type: cell-based, mouse; settings: Mus musculus; IC100 class; OCN secreted from MC3T3 osteoblast cells treated with sclerostin
Procedure: Bone formation can also be assayed in vitro or in vivo using a serum marker for bone formation, osteocalcin (OCN), available from Biomedical Tecnhnologies, Inc. (Stoughton, Mass.). Following the manufacturer's protocol for the mouse osteocalcin EIA kit (described at the website www.btiinc.com/page/cata2.html#mouse_osteocalcin), bone formation in MC3T3 osteoblast cells was assayed by measuring the concentration of OCN.

hERG potassium channel = biological target: T2, hERG potassium channel (Homo sapiens, UniProt Q12809); experiment: hERG automated patch clamp assay; assay type: cell-based; settings: inhibition of hERG tail current, 5 minutes at room temperature, CHO-K1 cells stably expressing hERG
T2 construct: expressed in transfected cells; host or cells: CHO-K1
T2 sequence (Q12809 whole entry): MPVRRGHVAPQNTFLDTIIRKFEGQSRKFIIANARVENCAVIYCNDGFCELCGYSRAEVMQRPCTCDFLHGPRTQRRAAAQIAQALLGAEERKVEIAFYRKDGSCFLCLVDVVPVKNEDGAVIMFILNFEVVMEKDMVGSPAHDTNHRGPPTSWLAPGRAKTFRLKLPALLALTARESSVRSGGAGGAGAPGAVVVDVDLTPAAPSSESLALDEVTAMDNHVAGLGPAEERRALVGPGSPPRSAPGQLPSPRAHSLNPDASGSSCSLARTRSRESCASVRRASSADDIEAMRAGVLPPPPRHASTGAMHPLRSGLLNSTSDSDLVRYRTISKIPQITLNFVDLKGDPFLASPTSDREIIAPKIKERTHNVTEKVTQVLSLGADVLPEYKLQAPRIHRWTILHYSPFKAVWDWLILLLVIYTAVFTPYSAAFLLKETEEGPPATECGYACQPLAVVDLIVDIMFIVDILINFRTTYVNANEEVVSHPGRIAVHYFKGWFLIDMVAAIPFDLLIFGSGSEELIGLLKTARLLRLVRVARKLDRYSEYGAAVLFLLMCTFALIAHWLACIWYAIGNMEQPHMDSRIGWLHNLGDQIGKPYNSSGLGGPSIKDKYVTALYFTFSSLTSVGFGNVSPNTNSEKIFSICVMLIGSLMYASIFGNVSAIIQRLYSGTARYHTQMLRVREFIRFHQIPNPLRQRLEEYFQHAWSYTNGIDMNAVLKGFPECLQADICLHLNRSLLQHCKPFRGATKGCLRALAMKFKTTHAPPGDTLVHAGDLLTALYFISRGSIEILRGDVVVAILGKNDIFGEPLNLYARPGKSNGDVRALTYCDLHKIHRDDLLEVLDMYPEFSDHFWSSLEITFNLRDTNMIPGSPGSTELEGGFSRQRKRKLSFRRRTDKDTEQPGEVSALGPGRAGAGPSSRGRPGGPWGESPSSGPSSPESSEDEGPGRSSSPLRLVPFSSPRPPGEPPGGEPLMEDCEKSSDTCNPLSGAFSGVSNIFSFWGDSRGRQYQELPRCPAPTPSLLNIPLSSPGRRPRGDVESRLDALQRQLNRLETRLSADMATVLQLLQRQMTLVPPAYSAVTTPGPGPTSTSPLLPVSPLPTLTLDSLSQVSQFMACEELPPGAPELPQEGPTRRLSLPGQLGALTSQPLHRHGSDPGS
Procedure: One major type of cardiovascular toxicity associated with pharmaceutical drugs is caused by drug effects on cardiac ion channels like hERG. Drug-induced inhibition of hERG results in a prolonged QT interval, which can lead to a life-threatening ventricular arrhythmia. Therefore, the inhibitory effect of compounds described in Examples 1-46 on the hERG potassium channel was evaluated using an automated patch clamp assay as described in Mathes, C. (2006) Expert Opin. Ther. Targets, 10 (2): 319-327. CHO-K1 cells stably expressing hERG channels were used.

[1] = tested on: MC3T3-E1 (mouse calvarial) osteoblast cells; experiment: Rescue of sclerostin inhibition of mineralization (total calcium); assay type: cell-based; settings: Mus musculus, MC3T3-E1; IC100 class; calcium concentration, MC3T3 osteoblast cells treated with sclerostin; read-out: Sclerostin Inhibition of Mineralization; improvement over sclerostin alone.
Procedure: Mineralization (crystalline calcium phosphate formation) represents an in vitro model of bone formation. […] Following the protocol described in Li et al., Compounds were assayed for their ability to rescue the inhibition of mineralization by sclerostin in MC3T3 osteoblast cells.

Sclerostin Inhibition Assay; improvement over sclerostin alone. (sclerostin) | Structure (SMILES) | IC100 (MC3T3 osteoblast cells) [µM] | hERG (1uM) (hERG potassium channel) | IC100 [1] [µM]
++ (++ indicates an IC100 < 10 μM) | COc1ccc2c3ccnc(C)c3n(CC(C)N(C)C)c2c1 (stereo not shown) [Example 3, 1-(7-methoxy-1-methyl-9H-pyrido[3,4-b]indol-9-yl)-N,N-dimethylpropan-2-aminium formate] | < 10 | + (+ indicates less than 50% inhibition of hERG tail current) | < 10
++ (++ indicates an IC100 < 10 μM) | Cc1nccc2c3ccc(O)cc3n(CC(C)N(C)C)c12 (stereo not shown) [Example 4, 9-(2-(dimethylamino)propyl)-1-methyl-9H-pyrido[3,4-b]indol-7-ol] | < 10 | + (+ indicates less than 50% inhibition of hERG tail current) | < 10
++ (++ indicates an IC100 < 10 μM) | COc1ccc2c3ccnc(C)c3n(CC(C)N3CCOCC3)c2c1 (stereo not shown) [Example 8, 4-(1-(7-methoxy-1-methyl-9H-pyrido[3,4-b]indol-9-yl)propan-2-yl) morpholine] | < 10 | + (+ indicates less than 50% inhibition of hERG tail current) | < 10
++ (++ indicates an IC100 < 10 μM) | COc1ccc2c3ccnc(C)c3n(CC(C)N3CCCCC3)c2c1 (stereo not shown) [Example 9, 7-methoxy-1-methyl-9-(2-(piperidin-1-yl)propyl)-9H-pyrido[3,4-b]indole] | < 10 | + (+ indicates less than 50% inhibition of hERG tail current) | < 10
++ (++ indicates an IC100 < 10 μM) | COc1ccc2c3ccnc(C)c3n(CCN3CCCCC3)c2c1 [Example 10, 7-methoxy-1-methyl-9-(2-(piperidin-1-yl)ethyl)-9H-pyrido[3,4-b]indole] | < 10 | + (+ indicates less than 50% inhibition of hERG tail current) | < 10
++ (++ indicates an IC100 < 10 μM) | COc1ccc2c3ccnc(C)c3n(CCCN3CCOCC3)c2c1 [Example 11, 4-(3-(7-methoxy-1-methyl-9H-pyrido[3,4-b]indol-9-yl)propyl)morpholine formate] | < 10 | + (+ indicates less than 50% inhibition of hERG tail current) | < 10
++ (++ indicates an IC100 < 10 μM) | COc1ccc2c3ccnc(C)c3n(CCN3CCOCC3)c2c1 [Example 12, 4-(2-(7-methoxy-1-methyl-9H-pyrido[3,4-b]indol-9-yl)ethyl)morpholine] | < 10 | + (+ indicates less than 50% inhibition of hERG tail current) | < 10
++ (++ indicates an IC100 < 10 μM) | Cc1nccc2c3ccc(O)cc3n(CCN3CCOCC3)c12 [Example 13, 1-methyl-9-(2-morpholinoethyl)-9H-pyrido[3,4-b]indol-7-ol] | < 10 | + (+ indicates less than 50% inhibition of hERG tail current) | < 10
++ (++ indicates an IC100 < 10 μM) | COc1ccc2c3ccnc(C)c3n(CCCN3CCN(C(=O)OC(C)(C)C)CC3)c2c1 [Example 15, t-butyl 4-(3-(7-methoxy-1-methyl-9H-pyrido[3,4-b]indol-9-yl)propyl) piperazine-1-carboxylate] | < 10 | ++ (++ indicates more than 50% inhibition of hERG tail current) | < 10

Structure (SMILES) | Sclerostin Inhibition Assay; improvement over sclerostin alone. (sclerostin) | IC100 (MC3T3 osteoblast cells) [µM] | hERG (1uM) (hERG potassium channel) | IC100 [1] [µM]
CC(Cn1c2ccccc2c2cccnc21)N(C)C (stereo not shown) [Example 1, N,N-dimethyl-1-(9H-pyrido[2,3-b]indol-9-yl)propan-2-amine] | + (+ indicates an IC100 > 10 μM) | > 10 | + (+ indicates less than 50% inhibition of hERG tail current) | > 10
